Laboratory results: patent US20070179295A1, “Triazolopyrimidines” (priority 2003, published 2007)

Experiment: logP determination through HPLC (EEC directive 79/831 Annex V. A8, gradient method, acetonitrile/0.1% aqueous phosphoric acid)
Format: physicochemical
Settings: for logP: Table 1, compounds of formula (I), HPLC gradient method, acetonitrile/0.1% aqueous phosphoric acid; for chromatographic logP: HPLC

Structure (SMILES)	logP	other results
C[C@H](Nc1c(-c2ncccc2[N+](=O)[O-])c(Cl)nc2nc(C3CC3)nn12)C(F)(F)F (single isomer, unassigned) [Example 16]	2.64	–
C[C@H](Nc1c(-c2ncccc2[N+](=O)[O-])c(Cl)nc2nc(C3CC3)nn12)C(F)(F)F (single isomer, unassigned) [Example 17]	2.65 (Iso- mer)	–
Cc1nc2nc(Cl)c(-c3ncccc3C(F)(F)F)c(N[C@@H](C)C(F)(F)F)n2n1 [Example 1, N-{5-chloro-2-methyl-6-[3-(trifluormethyl)-2-pyridinyl][1,2,4]triazolo-[1,5-a]pyrimidin-7-yl}-N-[(1S)-2,2,2-trifluor-1-methylethyl]amine]	–	chromatographic logP: 2.38
Cc1nc2nc(Cl)c(-c3ncncc3Cl)c(NC(C)C(F)(F)F)n2n1 [Example 2, N-[5-chloro-6-(5-chloro-4-pyrimidinyl)-2-methyl[1,2,4]triazolo[1,5-a]pyrimidin-7-yl]-N-[(1S)-2,2,2-trifluor-1-methylethyl]amine]	–	chromatographic logP (HPLC (gradient method)): 2.13
CC1CCN(c2c(-c3ncccc3C(F)(F)F)c(Cl)nc3nc(C4CC4)nn23)CC1 [Example 3]	3.77	–
FC1(F)CCN(c2c(-c3ncccc3C(F)(F)F)c(Cl)nc3nc(C4CC4)nn23)CC1 [Example 4]	3.20	–
CC(Nc1c(-c2ncccc2C(F)(F)F)c(Cl)nc2nc(C3CC3)nn12)C(C)(C)C (centres unmarked) [Example 5]	3.75	–
CC(C)C(C)Nc1c(-c2ncccc2C(F)(F)F)c(Cl)nc2nc(C3CC3)nn12 (centres unmarked) [Example 6]	3.29	–
CC(Nc1c(-c2ncccc2C(F)(F)F)c(Cl)nc2nc(C3CC3)nn12)C(F)(F)F (centres unmarked) [Example 7]	3.01	–
CC(Nc1c(-c2ncncc2Cl)c(Cl)nc2nc(C3CC3)nn12)C(F)(F)F (centres unmarked) [Example 8]	2.69	–
Cc1nc2nc(Cl)c(-c3ncncc3Cl)c(NC(C)C(C)C)n2n1 (centres unmarked) [Example 9]	2.31	–
Cc1nc2nc(Cl)c(-c3ncccc3C)c(N3CCC(C)CC3)n2n1 [Example 10]	3.09	–
Cc1nc2nc(Cl)c(-c3ncccc3C(F)(F)F)c(NC(C)C(C)(C)C)n2n1 (centres unmarked) [Example 11]	2.99	–
Cc1nc2nc(Cl)c(-c3ncccc3C(F)(F)F)c(NC(C)C(C)C)n2n1 (centres unmarked) [Example 12]	2.68	–
CC(C)C(C)Nc1c(-c2ncncc2Cl)c(Cl)nc2nc(C3CC3)nn12 (centres unmarked) [Example 15]	2.94	–
CC(Nc1c(-c2ccccn2)c(Cl)nc2nc(C3CC3)nn12)C(C)(C)C (centres unmarked) [Example 18]	3.09	–
C[C@H](Nc1c(-c2ncc([N+](=O)[O-])cc2Cl)c(Cl)nc2nc(C3CC3)nn12)C(F)(F)F [Example 19]	3.26	–
CC(Nc1c(-c2ncccc2[N+](=O)[O-])c(Cl)nc2nc(C3CC3)nn12)C(C)(C)C (centres unmarked) [Example 20]	3.21	–
Cc1nc2nc(Cl)c(-c3ncccc3[N+](=O)[O-])c(NC(C)C(C)(C)C)n2n1 (centres unmarked) [Example 21]	2.60	–
CC(Nc1c(-c2ccccn2)c(Cl)nc2nc(C3CC3)nn12)C(F)(F)F (centres unmarked) [Example 22]	2.60	–
CC(Nc1c(-c2ccccn2)c(Cl)nc2nc(C3CC3)nn12)C(F)(F)F (centres unmarked) [Example 24]	2.60	–
CC(C)C(C)Nc1c(-c2ncccc2[N+](=O)[O-])c(Cl)nc2nc(C3CC3)nn12 (centres unmarked) [Example 25]	2.82	–
CC(C)C(C)Nc1c(-c2ccccn2)c(Cl)nc2nc(C3CC3)nn12 (centres unmarked) [Example 27]	2.63	–
CC(Nc1c(-c2nc([N+](=O)[O-])ccc2Cl)c(Cl)nc2nc(C3CC3)nn12)C(C)(C)C (centres unmarked) [Example 28]	3.86	–
CC(C)c1nc2nc(Cl)c(-c3ncncc3Cl)c(NC(C)C(F)(F)F)n2n1 (centres unmarked) [Example 29]	2.90	–
FC(F)(F)CNc1c(-c2ncncc2Cl)c(Cl)nc2nc(C3CC3)nn12 [Example 30]	2.37	–
CC(C)c1nc2nc(Cl)c(-c3ncncc3Cl)c(NCC(F)(F)F)n2n1 [Example 31]	2.56	–

Structure (SMILES)	logP	other results
CC(C)C(C)Nc1c(-c2ncncc2Cl)c(Cl)nc2nc(C3CC3)nn12 (centres unmarked) [Example 32]	3.12	–
CC(Nc1c(-c2ncncc2Cl)c(Cl)nc2nc(C3CC3)nn12)C(C)(C)C (centres unmarked) [Example 33]	3.50	–
CC(C)c1nc2nc(Cl)c(-c3ncncc3Cl)c(NC(C)C(C)(C)C)n2n1 (centres unmarked) [Example 34]	3.67	–
CC(Nc1c(-c2ncncc2Cl)c(Cl)nc2nc(C3CC3)nn12)C(C)(C)C (centres unmarked) [Example 35]	3.39	–
CC(C)c1nc2nc(Cl)c(-c3ncncc3Cl)c(NC(C)C(C)C)n2n1 (centres unmarked) [Example 36]	3.17	–
CC(C)C(C)Nc1c(-c2ncncc2Cl)c(Cl)nc2nc(C3CC3)nn12 (centres unmarked) [Example 37]	2.95	–
CC(Nc1c(-c2ncncc2Cl)c(Cl)nc2nc(C3CC3)nn12)C(F)(F)F (centres unmarked) [Example 38]	2.82	–
FC(F)(F)CNc1c(-c2ccncc2Cl)c(Cl)nc2nc(C3CC3)nn12 [Example 40]	2.48	–
FC1(F)CCN(c2c(-c3ncncc3Cl)c(Cl)nc3nc(C4CC4)nn23)CC1 [Example 41]	2.75	–
CC(Nc1c(-c2ccncc2Cl)c(Cl)nc2nc(C3CC3)nn12)C(F)(F)F (centres unmarked) [Example 42]	2.82	–
CC(C)C(C)Nc1c(-c2ccncc2Cl)c(Cl)nc2nc(C3CC3)nn12 (centres unmarked) [Example 43]	3.09	–
CC(Nc1c(-c2ccncc2Cl)c(Cl)nc2nc(C3CC3)nn12)C(F)(F)F (centres unmarked) [Example 44]	2.78	–
CC(Nc1c(-c2cc(Cl)sc2Cl)c(Cl)nc2nc(C3CC3)nn12)C(F)(F)F (centres unmarked) [Example 46]	4.32	–
FC(F)(F)CNc1c(-c2cc(Cl)sc2Cl)c(Cl)nc2nc(C3CC3)nn12 [Example 47]	3.85	–
CC(C)Nc1c(-c2cc(Cl)sc2Cl)c(Cl)nc2nc(C3CC3)nn12 [Example 48]	4.18	–
CC(C)(C)CNc1c(-c2cc(Cl)sc2Cl)c(Cl)nc2nc(C3CC3)nn12 [Example 50]	5.08	–
CC(C)C(C)Nc1c(-c2ccsc2)c(Cl)nc2nc(C3CC3)nn12 (centres unmarked) [Example 52]	3.81	–
CC(C)C(C)Nc1c(-c2cc(Cl)sc2Cl)c(Cl)nc2nc(C3CC3)nn12 (centres unmarked) [Example 53]	5.03	–
CC1CCN(c2c(-c3ccsc3)c(Cl)nc3nc(C4CC4)nn23)CC1 [Example 55]	4.23	–
FC1(F)CCN(c2c(-c3ccsc3)c(Cl)nc3nc(C4CC4)nn23)CC1 [Example 56]	3.41	–
C=C(C)CN(CC)c1c(-c2ccsc2)c(Cl)nc2nc(C3CC3)nn12 [Example 57]	4.13	–
COCCN(C)c1c(-c2cc(Cl)sc2Cl)c(Cl)nc2nc(C3CC3)nn12 [Example 58]	4.08	–
CC(Nc1c(-c2ccsc2)c(Cl)nc2nc(C3CC3)nn12)C(F)(F)F (centres unmarked) [Example 59]	3.29	–
FC(F)(F)CNc1c(-c2ccsc2)c(Cl)nc2nc(C3CC3)nn12 [Example 60]	2.87	–
CC(C)CC(C)Nc1c(-c2ccsc2)c(Cl)nc2nc(C3CC3)nn12 (centres unmarked) [Example 61]	4.14	–
CC(C)CN(C)c1c(-c2ccsc2)c(Cl)nc2nc(C3CC3)nn12 [Example 63]	3.90	–
COCCN(C)c1c(-c2ccsc2)c(Cl)nc2nc(C3CC3)nn12 [Example 64]	2.91	–

Structure (SMILES)	logP	other results
Clc1nc2nc(C3CC3)nn2c(N2CCCC2)c1-c1ccsc1 [Example 65]	3.18	–
CCCN(CC1CC1)c1c(-c2ccsc2)c(Cl)nc2nc(C3CC3)nn12 [Example 66]	4.32	–
CC1CN(c2c(-c3ccsc3)c(Cl)nc3nc(C4CC4)nn23)CC(C)O1 (centres unmarked) [Example 67]	3.26	–
CC(C)CC(C)Nc1c(-c2cc(Cl)sc2Cl)c(Cl)nc2nc(C3CC3)nn12 (centres unmarked) [Example 68]	5.42	–
CCC(C)Nc1c(-c2cc(Cl)sc2Cl)c(Cl)nc2nc(C3CC3)nn12 (centres unmarked) [Example 69]	4.56	–
Clc1cc(-c2c(Cl)nc3nc(C4CC4)nn3c2NC2CCCC2)c(Cl)s1 [Example 70]	4.82	–
CC(C)Nc1c(-c2ccsc2)c(Cl)nc2nc(C3CC3)nn12 [Example 72]	3.07	–
Clc1nc2nc(C3CC3)nn2c(N2CCOCC2)c1-c1ccsc1 [Example 73]	2.51	–
Clc1nc2nc(C3CC3)nn2c(NC2CCCC2)c1-c1ccsc1 [Example 74]	3.63	–
C=C(C)CN(C)c1c(-c2ccsc2)c(Cl)nc2nc(C3CC3)nn12 [Example 75]	3.81	–
COCCNc1c(-c2cc(Cl)sc2Cl)c(Cl)nc2nc(C3CC3)nn12 [Example 76]	3.55	–
CC(C)(C)CNc1c(-c2ccsc2)c(Cl)nc2nc(C3CC3)nn12 [Example 77]	3.85	–
CCC(C)Nc1c(-c2ccsc2)c(Cl)nc2nc(C3CC3)nn12 (centres unmarked) [Example 78]	3.41	–
CCCN(CC1CC1)c1c(-c2cc(Cl)sc2Cl)c(Cl)nc2nc(C3CC3)nn12 [Example 79]	5.71	–
CC(C)CN(C)c1c(-c2cc(Cl)sc2Cl)c(Cl)nc2nc(C3CC3)nn12 [Example 81]	5.25	–
Clc1cc(-c2c(Cl)nc3nc(C4CC4)nn3c2N2CCCC2)c(Cl)s1 [Example 82]	4.37	–
Clc1cc(-c2c(Cl)nc3nc(C4CC4)nn3c2N2CCCCCC2)c(Cl)s1 [Example 85]	5.14	–
Clc1cc(-c2c(Cl)nc3nc(C4CC4)nn3c2N2CCOCC2)c(Cl)s1 [Example 89]	3.68	–
CC(Nc1c(-c2scnc2Cl)c(Cl)nc2nc(C3CC3)nn12)C(F)(F)F (centres unmarked) [Example 91]	2.94	–
CC(C)C(C)Nc1c(-c2scnc2Cl)c(Cl)nc2nc(C3CC3)nn12 (centres unmarked) [Example 92]	3.23	–
CC1CCN(c2c(-c3ncncc3Cl)c(Cl)nc3nc(C4CC4)nn23)CC1 [Example 94]	3.30	–
CC1CCCCN1c1c(-c2ccsc2)c(Cl)nc2nc(C3CC3)nn12 (centres unmarked) [Example 95]	4.07	–
CC(C)c1nc2nc(Cl)c(-c3ncncc3F)c(NC(C)C(C)(C)C)n2n1 (centres unmarked) [Example 100]	3.47	–
CC(C)c1nc2nc(Cl)c(-c3ncncc3F)c(NC(C)C(C)C)n2n1 (centres unmarked) [Example 101]	3.02	–
CC(C)c1nc2nc(Cl)c(-c3ncncc3F)c(NC(C)C(F)(F)F)n2n1 (centres unmarked) [Example 102]	2.78	–
CC(Nc1c(-c2ncncc2F)c(Cl)nc2nc(C3CC3)nn12)C(C)(C)C (centres unmarked) [Example 103]	3.18	–
